# Tested on: Osteoblasts (Calvarial cells)
# Assay: not given
# Conditions: ICR, mouse, 72 h, 1 μM
row,SMILES,Cell viability (%) Calvarial cell [%]
1,"O=[N+]([O-])c1ccc(N2CCOCC2)nc1Nc1ccc(-c2csc(C3CCCCC3)n2)cc1 [Compound 160, 2-[4-(2-cyclohexylthiazol-4-yl)phenylamino]-6-morpholino-3-nitropyridine]",105
2,"CNc1ccc([N+](=O)[O-])c(Nc2ccc(C(C)(C)C)cc2)n1 [Compound 30, 2-[4-(t-butyl)phenylamino]-6-(methylamino)-3-nitropyridine]",90
3,"CC(C)Nc1ccc([N+](=O)[O-])c(Nc2ccc(N3CCOCC3)cc2)n1 [Compound 109, 2-(4-morpholinophenylamino)-6-(isopropylamino)-3-nitropyridine]",101
4,"Cc1nccn1-c1ccc([N+](=O)[O-])c(Nc2cccc(N)c2)n1 [Compound 85, 2-[3-(amino)phenylamino]-6-[(2-methyl)imidazol-1-yl]-3-nitropyridine]",101
5,"CN1CCN(c2ccc([N+](=O)[O-])c(Nc3ccc(F)c(F)c3)n2)CC1 [Compound 128, 2-[(3,4-difluoro)phenylamino]-6-(4-methylpiperazin-1-yl)-3-nitropyridine]",87

# Tested on: Osteoblasts (Calvarial cells)
# Assay: Cytotoxicity test (MTT)
# Conditions: 1 μM compound, 72 hours, in comparison with vehicle control
row,SMILES,Cell viability (%) Calvarial cell [%]
1,"CC(C)CNc1ccc([N+](=O)[O-])c(Nc2ccc(N3CCC(N)CC3)c(F)c2)n1 [Compound 250, 2-{[3-fluoro-4-(4-aminopiperidino)]phenylamino}-6-(isobutylamino)-3-nitropyridine]",85
2,"Nc1cccc(Nc2nc(NCCN3CCOCC3)ccc2[N+](=O)[O-])c1 [Compound 83, 2-[3-(amino)phenylamino]-6-[2-(morpholin-1-yl)ethylamino]-3-nitropyridine]",99
3,"O=C(O)C1CCN(c2ccc(Nc3nc(NCCCn4ccnc4)ccc3[N+](=O)[O-])cc2F)CC1 [Compound 323, 2-{[3-fluoro-4-(4-carboxylicpiperidino)]phenylamino}-6-[(3-imidazol-1-yl)propylamino]-3-nitropyridine]",105
4,"O=[N+]([O-])c1ccc(N2CCC(O)CC2)nc1Nc1ccc(N2CCCC(CO)C2)c(F)c1 (stereo not shown) [Compound 279, 2-{[3-fluoro-4-(3-hydroxymethylpiperidino)]phenylamino}-6-(4-hydroxypiperidino)-3-nitropyridine]",102
5,"CCN(CC)c1ccc(Nc2nc(NCc3ccncc3)ccc2[N+](=O)[O-])cc1F [Compound 186, 2-[(3-fluoro-4-diethylamino)phenylamino]-6-[(4-pyridyl)methylamino]-3-nitropyridine]",113
6,NC(=O)C1CCCN(c2ccc(Nc3nc(N4CCC(O)CC4)ccc3[N+](=O)[O-])cc2F)C1 (stereo not shown) [Compound 305],107
7,"CCN(CC)c1ccc(Nc2nc(NC(C)C)ccc2[N+](=O)[O-])cc1F [Compound 176, 2-[(3-fluoro-4-diethylamino)phenylamino]-6-(isopropylamino)-3-nitropyridine]",109
8,"CC1CCCCN1c1ccc(Nc2nc(NC(C)(C)C)ccc2[N+](=O)[O-])cc1F (stereo not shown) [Compound 264, 2-{[3-fluoro-4-(2-methylpiperidino)]phenylamino}-6-(t-butylamino)-3-nitropyridine]",117
9,"CC(C)Nc1ccc([N+](=O)[O-])c(Nc2ccc(N3CCCCC3C)c(F)c2)n1 (stereo not shown) [Compound 262, 2-{[3-fluoro-4-(2-methylpiperidino)]phenylamino}-6-(isopropylamino)-3-nitropyridine]",109
10,"CCN(CC)c1ccc(Nc2nc(NC)ccc2[N+](=O)[O-])cc1F [Compound 175, 2-[(3-fluoro-4-diethylamino)phenylamino]-6-(methylamino)-3-nitropyridine]",104
11,"CC1CCCCN1c1ccc(Nc2nc(N3CCC(N)CC3)ccc2[N+](=O)[O-])cc1F (stereo not shown) [Compound 270, 2-{[3-fluoro-4-(2-methylpiperidino)]phenylamino}-6-(4-aminopiperidino)-3-nitropyridine]",95
12,"CNc1ccc([N+](=O)[O-])c(Nc2ccc(N3CCC(N)CC3)c(F)c2)n1 [Compound 248, 2-{[3-fluoro-4-(4-aminopiperidino)]phenylamino}-6-(methylamino)-3-nitropyridine]",95
13,"NC1CCN(c2ccc(Nc3nc(NCCCN4CCOCC4)ccc3[N+](=O)[O-])cc2F)CC1 [Compound 260, 2-{[3-fluoro-4-(4-aminopiperidino)]phenylamino}-6-[(3-morpholin-1-yl)propylamino]-3-nitropyridine]",107
14,"NC(=O)C1CCCN(c2ccc(Nc3nc(NCCCn4ccnc4)ccc3[N+](=O)[O-])cc2F)C1 (stereo not shown) [Compound 312, 2-{[3-fluoro-4-(3-carbamoylpiperidino)]phenylamino}-6-[(3-imidazol-1-yl)propylamino]-3-nitropyridine]",98
15,"CC1CCCCN1c1ccc(Nc2nc(N3CCNCC3)ccc2[N+](=O)[O-])cc1F (stereo not shown) [Compound 267, 2-{[3-fluoro-4-(2-methylpiperidino)]phenylamino}-6-(piperazin-1-yl)-3-nitropyridine]",107
16,"CC(C)Nc1ccc([N+](=O)[O-])c(Nc2ccc(N3CCC(C(N)=O)CC3)c(F)c2)n1 [Compound 290, 2-{[3-fluoro-4-(4-carbamoylpiperidino)]phenylamino}-6-(isopropylamino)-3-nitropyridine]",119

row,SMILES,Cell viability (%) Calvarial cell [%]
1,"CC(C)c1nccn1-c1ccc([N+](=O)[O-])c(Nc2ccc(N3CCOCC3)c(F)c2)n1 [Compound 196, 2-[(3-fluoro-4-morpholino)phenylamino]-6-[(2-isopropyl)imidazol-1-yl]-3-nitropyridine]",100
2,CC1=NCCN1c1ccc([N+](=O)[O-])c(Nc2ccc(N3CCCCC3C)c(F)c2)n1 (stereo not shown) [Compound 266],121
3,"O=[N+]([O-])c1ccc(N2CCC(O)CC2)nc1Nc1ccc(N2CCOCC2)c(F)c1 [Compound 194, 2-[(3-fluoro-4-morpholino)phenylamino]-6-(4-hydroxypiperidino)-3-nitropyridine]",107
4,"CC(C)CNc1ccc([N+](=O)[O-])c(Nc2ccc(N3CCCCC3C)c(F)c2)n1 (stereo not shown) [Compound 263, 2-{[3-fluoro-4-(2-methylpiperidino)]phenylamino}-6-(isobutylamino)-3-nitropyridine]",108
5,"CCN(CC)c1ccc([N+](=O)[O-])c(Nc2ccc(N3CCCC(C(N)=O)C3)c(F)c2)n1 (stereo not shown) [Compound 315, 2-{[3-fluoro-4-(3-carbamoylpiperidino)]phenylamino}-6-(diethylamino)-3-nitropyridine]",104
6,"CCN(CC)c1ccc(Nc2nc(N3CCC(N)CC3)ccc2[N+](=O)[O-])cc1F [Compound 187, 2-[(3-fluoro-4-diethylamino)phenylamino]-6-(4-aminopiperidino)-3-nitropyridine]",102
7,"CC(C)CNc1ccc([N+](=O)[O-])c(Nc2ccc(N3CCC(C(=O)O)CC3)c(F)c2)n1 [Compound 318, 2-{[3-fluoro-4-(4-carboxylicpiperidino)]phenylamino}-6-(isobutylamino)-3-nitropyridine]",103
8,"CCN(CC)c1ccc(Nc2nc(-n3ccnc3C(C)C)ccc2[N+](=O)[O-])cc1F [Compound 180, 2-[(3-fluoro-4-diethylamino)phenylamino]-6-[(2-isopropyl)imidazol-1-yl]-3-nitropyridine]",100
9,"Nc1cccc(Nc2nc(NCCCN3CCOCC3)ccc2[N+](=O)[O-])c1 [Compound 84, 2-[3-(amino)phenylamino]-6-[3-(morpholin-1-yl)propylamino]-3-nitropyridine]",108
10,"CC(C)CNc1ccc([N+](=O)[O-])c(Nc2ccc(N3CCCC(CO)C3)c(F)c2)n1 (stereo not shown) [Compound 277, 2-{[3-fluoro-4-(3-hydroxymethylpiperidino)]phenylamino}-6-(isobutylamino)-3-nitropyridine]",107
11,"CCN(CC)c1ccc(Nc2nc(NC(C)(C)C)ccc2[N+](=O)[O-])cc1F [Compound 178, 2-[(3-fluoro-4-diethylamino)phenylamino]-6-(t-butylamino)-3-nitropyridine]",109
12,"CC(C)Nc1ccc([N+](=O)[O-])c(Nc2ccc(N3CCC(C(=O)O)CC3)c(F)c2)n1 [Compound 317, 2-{[3-fluoro-4-(4-carboxylicpiperidino)]phenylamino}-6-(isopropylamino)-3-nitropyridine]",99
13,"CCN(CC)c1ccc(Nc2nc(N3CCNCC3)ccc2[N+](=O)[O-])cc1F [Compound 182, 2-[(3-fluoro-4-diethylamino)phenylamino]-6-(piperazin-1-yl)-3-nitropyridine]",101
14,"NC(=O)C1CCN(c2ccc(Nc3nc(N4CCOCC4)ccc3[N+](=O)[O-])cc2F)CC1 [Compound 296, 2-{[3-fluoro-4-(4-carbamoylpiperidino)]phenylamino}-6-morpholino-3-nitropyridine]",97
15,"NC1CCN(c2ccc([N+](=O)[O-])c(Nc3ccc(N4CCCC(CO)C4)c(F)c3)n2)CC1 (stereo not shown) [Compound 284, 2-{[3-fluoro-4-(3-hydroxymethylpiperidino)]phenylamino}-6-(4-aminopiperidino)-3-nitropyridine]",100
16,Cc1ccc(Nc2nc(NCc3ccncc3)ccc2[N+](=O)[O-])cc1 [Compound 8],92

# Reference: patent US20110306606A1, “NOVEL 2,6-SUBSTITUTED-3-NITROPYRIDINE DERIVATIVE, METHOD FOR PREPARING SAME, AND PHARMACEUTICAL COMPOSITION INCLUDING SAME” (priority 2008, published 2011)
